Tests used:
[1] = tested on: motor coordination in mice; test: rotarod test (motor impairment / neurotoxicity); format: in vivo, ICR mice
Method: To exclude possible non-specific muscle relaxant or sedative effects, the effects of (−)-NRG-DM on motor performance were evaluated in the rotarod test.
To determine the neurotoxicity effects of (−)-NRG-DM, the standardized rotarod test was conducted in male ICR mice weighted 20 ± 2 g. The mice were divided at random into 4 groups (n = 10 for each group). The mice were placed on a rotarod appliance (YLS-4C, Bio-will, Shanghai, China) with a rod of 3 cm diameter, rotating at a constant speed of 6 rpm. The day before the compound test, all mice were pre-trained and only the animals able to remain on the rod for at least 1 min every time in three consecutive trials (3 min) were retained. During the test, the mice were measured in the rotarod test 0.5 h and 1 h after intraperitoneal administration of (−)-NRG-DM. The animals unable to remain on the rod for 3 consecutive periods were considered motor coordination impaired.

[2] = tested on: native Nav currents in DRG neurons; test: whole-cell patch-clamp, native sodium currents in DRG neurons; format: cell-based, mouse
Method: A reduction in amplitudes of action potentials manifested that (−)-NRG-DM may inhibit native sodium currents, which are mainly involved in the rising phase of an action potential. To record native sodium currents in acutely isolated DRG neurons, a 50 ms test pulse depolarized to −20 mV from a holding potential of −90 mV was applied. […] To understand how (−)-NRG-DM inhibited Nav channels, the effects of 30 µM compound (−)-NRG-DM on Nav channel kinetics were further characterized. […] In contrast to the lack of effect on the Nav channel activation, (−)-NRG-DM caused a depolarization shift of the steady-state inactivation. The V1/2 value was shifted from −65.72 ± 1.74 mV to −55.34 ± 2.14 mV by 30 µM (−)-NRG-DM (Figure 6G).
(§1) Dorsal root ganglia (DRG) were dissected from male C57BL/6 mice aged 4~6 weeks. The ganglia were first cut into small pieces and then digested at 37 °C for 20 min in DMEM containing 1 mg/mL collagenase type I and 0.25 mg/mL trypsin (Sigma-Aldrich). Subsequently, the digested small fragments were terminated and resuspended with DMEM/F12 growth medium (Gibco) supplemented with 10% fetal bovine serum (FBS) (Gibco). Finally, the dissociated DRG neurons were seeded onto 24-well plates with poly-L-lysine-coated coverslips and placed in a 37 °C, 5% CO2 incubator for at least 1 h before electrophysiological experiments.

[3] = pharmacokinetic study, plasma concentration after intraperitoneal administration; format: in vivo, ICR mice
Method: The pharmacokinetic study was performed in male ICR mice weighted 20 ± 2 g. The mice were fasted for 12 h before intraperitoneal administration of (−)-NRG-DM at 50 mg/kg. Blood samples (0.5 mL) were collected at 0.5, 1, and 1.5 h from the abdominal aorta into the heparinized tubes after drug administration. The plasma was separated by centrifugation (11,000 rpm for 5 min) and then stored at −80 °C until analyzed. Plasma samples (20 μL) were treated with the addition of the internal standard solution (20 μL) and acetonitrile (300 μL), then vortexed for 15 min (1000 rpm, RT), and centrifuged of 15 min (3700 rpm, 4 °C). The supernatants were collected for analysis using LC−MS/MS. The data were processed using Analyst software version 1.6.3 (Sciex, ON, Canada).

[4] = tested on: Kv channels in DRG neurons; test: activation kinetics of Kv currents in DRG neurons; format: cell-based, mouse; conditions: in presence of 10 µM; control −6.43 ± 1.21 mV
Description: (§2) The currents in mouse DRG neurons can be separated into IA and IK. They could be distinguished by applying voltage steps from a holding potential of −50 mV, at which IA was almost completely inactivated, while IK remained unchanged. Thereby, IA could be separated by subtracting IK from the total potassium currents. According to these electrophysiological characteristics, the effects of (−)-NRG-DM on potassium currents were examined (Figure 5A). […] Additionally, the effects of (−)-NRG-DM on the kinetics of the Kv channels were further characterized. The Kv currents were elicited by multiple 1500 ms depolarization pulses ranging from −80 mV to +90 mV in 10 mV increments from a holding potential of −80 mV. […] The values of V1/2 in the absence and presence of 10 µM (−)-NRG-DM were −6.43 ± 1.21 mV and −8.08 ± 2.02 mV, respectively (Figure 5D).

[5] = tested on: transient outward potassium currents (IA) in DRG neurons; test: whole-cell patch-clamp, transient outward potassium currents in DRG neurons; format: cell-based; conditions: Mus musculus, DRG neuron; n = 5
Description: as §2
as §1, with “Finally, the dissociated DRG neurons were seeded onto 24-well plates with poly-L-lysine-coated coverslips and placed in a 37 °C, 5% CO2 incubator for at least 1 h before electrophysiological experiments.” left out

Nav1.7 channel = Nav1.7 channel (Homo sapiens, UniProt Q15858); test: whole-cell patch-clamp, Nav1.7 stably expressed in HEK293 cells
Chain of Nav1.7 channel (Q15858 whole entry): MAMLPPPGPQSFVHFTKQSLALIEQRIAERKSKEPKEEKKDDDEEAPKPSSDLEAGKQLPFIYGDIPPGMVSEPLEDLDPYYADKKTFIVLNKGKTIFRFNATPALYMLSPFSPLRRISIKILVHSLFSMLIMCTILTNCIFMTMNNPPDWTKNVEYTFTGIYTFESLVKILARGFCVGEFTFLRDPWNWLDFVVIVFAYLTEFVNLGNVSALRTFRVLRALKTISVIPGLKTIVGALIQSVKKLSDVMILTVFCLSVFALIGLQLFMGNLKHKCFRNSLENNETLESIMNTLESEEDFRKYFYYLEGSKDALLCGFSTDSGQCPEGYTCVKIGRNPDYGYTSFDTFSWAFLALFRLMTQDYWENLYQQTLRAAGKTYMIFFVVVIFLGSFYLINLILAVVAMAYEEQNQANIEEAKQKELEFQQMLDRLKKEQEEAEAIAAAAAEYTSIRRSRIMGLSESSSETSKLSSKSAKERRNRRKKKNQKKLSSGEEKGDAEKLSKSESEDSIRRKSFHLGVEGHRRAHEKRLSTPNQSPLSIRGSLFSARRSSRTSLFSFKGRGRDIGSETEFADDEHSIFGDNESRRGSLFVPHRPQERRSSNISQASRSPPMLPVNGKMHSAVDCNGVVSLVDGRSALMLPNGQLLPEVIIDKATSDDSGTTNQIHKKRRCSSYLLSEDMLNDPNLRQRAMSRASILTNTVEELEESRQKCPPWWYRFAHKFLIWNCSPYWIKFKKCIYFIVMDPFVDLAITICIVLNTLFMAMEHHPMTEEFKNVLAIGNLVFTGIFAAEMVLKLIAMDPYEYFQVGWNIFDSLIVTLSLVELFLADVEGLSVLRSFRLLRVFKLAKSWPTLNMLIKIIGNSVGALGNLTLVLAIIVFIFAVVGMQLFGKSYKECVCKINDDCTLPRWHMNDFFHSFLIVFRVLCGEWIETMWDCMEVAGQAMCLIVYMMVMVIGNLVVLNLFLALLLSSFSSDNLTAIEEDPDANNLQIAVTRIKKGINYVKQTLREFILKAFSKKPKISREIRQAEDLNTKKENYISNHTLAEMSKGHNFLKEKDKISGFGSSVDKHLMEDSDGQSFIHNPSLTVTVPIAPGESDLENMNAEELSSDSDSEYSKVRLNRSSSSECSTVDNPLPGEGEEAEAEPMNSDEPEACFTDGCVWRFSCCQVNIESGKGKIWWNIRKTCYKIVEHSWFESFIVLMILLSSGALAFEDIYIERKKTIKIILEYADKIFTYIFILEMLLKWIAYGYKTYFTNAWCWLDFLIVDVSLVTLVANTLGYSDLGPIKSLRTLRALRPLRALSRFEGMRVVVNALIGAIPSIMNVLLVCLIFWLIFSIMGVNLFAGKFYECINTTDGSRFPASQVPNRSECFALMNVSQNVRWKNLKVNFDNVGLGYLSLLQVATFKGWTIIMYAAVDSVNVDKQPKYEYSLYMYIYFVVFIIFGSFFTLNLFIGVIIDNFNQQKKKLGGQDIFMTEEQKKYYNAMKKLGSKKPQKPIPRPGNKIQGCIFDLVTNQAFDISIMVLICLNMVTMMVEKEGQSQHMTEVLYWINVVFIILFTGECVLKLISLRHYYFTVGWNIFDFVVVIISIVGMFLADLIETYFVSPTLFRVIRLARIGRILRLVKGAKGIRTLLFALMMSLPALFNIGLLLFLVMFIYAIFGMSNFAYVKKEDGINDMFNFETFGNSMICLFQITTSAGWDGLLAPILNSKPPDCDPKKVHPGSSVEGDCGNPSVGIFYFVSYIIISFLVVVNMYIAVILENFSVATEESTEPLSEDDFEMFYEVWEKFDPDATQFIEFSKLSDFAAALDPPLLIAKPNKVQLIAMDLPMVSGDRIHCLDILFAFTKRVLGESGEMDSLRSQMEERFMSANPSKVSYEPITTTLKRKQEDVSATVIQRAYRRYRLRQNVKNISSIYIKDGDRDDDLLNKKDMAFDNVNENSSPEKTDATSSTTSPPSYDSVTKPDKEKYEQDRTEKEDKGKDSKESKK

## COc1ccc([C@H]2CC(=O)c3c(O)cc(OC)cc3O2)cc1 [(−)-NRG-DM, (−)-naringenin 4′,7-dimethyl ether]
[1]; 100 mg/kg i.p., 0.5 h
  Fall nFall /nTest: 0/10
  Motor Impairment (%): 0%
[1]; 100 mg/kg i.p., 1 h
  Fall nFall /nTest: 0/10
  Motor Impairment (%): 0%
[1]; 100 mg/kg, 200 mg/kg, or 400 mg/kg i.p.
  ability to remain on the rotating rod: no significant effects
[1]; 200 mg/kg i.p., 0.5 h
  Fall nFall /nTest: 1/10
  Motor Impairment (%): 10%
[1]; 200 mg/kg i.p., 1 h
  Fall nFall /nTest: 0/10
  Motor Impairment (%): 0%
[1]; 400 mg/kg i.p., 0.5 h
  Fall nFall /nTest: 0/10
  Motor Impairment (%): 0%
[1]; 400 mg/kg i.p., 1 h
  Fall nFall /nTest: 0/10
  Motor Impairment (%): 0%
[1]; 100, 200, 400 mg/kg i.p., during rotarod test (0.5 and 1 h) and 24 h after administration
  signs of toxicity: no sign of toxicity
[2]; 30 μM, control −15.34 ± 0.58 mV
  V1/2 of activation, total Nav currents: −15.23 ± 0.56 mV
[2]; 30 µM, control −65.72 ± 1.74 mV
  V1/2 of steady-state inactivation, total Nav currents: −55.34 ± 2.14 mV
[2]; Mus musculus, DRG neuron, n = 5
  IC50: 34.78 ± 0.14 µM
[2]; at plasma concentration from pharmacokinetic study (around 7 µM)
  reduction in INa: around 28%
[3]; 0.5~1.5 h after i.p. injection at 50 mg/kg
  plasma concentration: around 7 µM
[3]; male, ICR, mouse, ip, plasma, 50 mg/kg i.p., 0.5 h, mean ± SEM
  concentration at 0.5 h: 2290 ± 183 ng/mL
[3]; male, ICR, mouse, ip, plasma, 50 mg/kg i.p., 1 h, mean ± SEM
  concentration at 1 h: 2220 ± 1250 ng/mL
[3]; male, ICR, mouse, ip, plasma, 50 mg/kg i.p., 1.5 h, mean ± SEM
  concentration at 1.5 h: 717 ± 222 ng/mL
[3]; plasma, 50 mg/kg i.p., 0.5 h, mean ± SEM
  Concentration (μM/L): 7.64 ± 0.61 µM
[3]; plasma, 50 mg/kg i.p., 1 h, mean ± SEM
  Concentration (μM/L): 7.39 ± 4.17 µM
[3]; plasma, 50 mg/kg i.p., 1.5 h, mean ± SEM
  Concentration (μM/L): 2.39 ± 0.74 µM
[4]
  V1/2 of activation of Kv currents: −8.08 ± 2.02 mV
[5]
  IC50: 119.9 ± 0.03 µM
Nav1.7 channel; 30 µM
  inhibitory ratio: 39 ± 5%
Nav1.7 channel; 30 μM, HEK293
  IDrug/IControl: 0.61 ± 0.05
Nav1.7 channel; 30 μM, no significant difference between Nav1.7 and Nav1.8
  selectivity Nav1.7 vs Nav1.8: non-selective Nav channel inhibitor

Source: PMC8911579, “(−)-Naringenin 4′,7-dimethyl Ether Isolated from Nardostachys jatamansi Relieves Pain through Inhibition of Multiple Channels” (Molecules, 2022)
